Results as given in patent US20090068290A1, “BIFEPRUNOX DOSES FOR TREATING SCHIZOPHRENIA” (priority 2006, published 2009).

Experiments:
Type in all cases: in vivo, human
[1] = tested on: adult subjects with schizophrenia; experiment: PANSS responder rate, Clinical Study Two
Method: Notable differences were also observed between the 30 mg bifeprunox group and placebo for the change from baseline to endpoint in PANSS general psychopathology subscale score, BPRS total score, BPRS psychosis cluster score, PANSS responder rate, and CGI-I responder rate. […] A CGI-I responder refers to a subject who was categorized as “very much improved” or “much improved” in the CGI Global Improvement scale at endpoint. […]
Subjects who completed this study had the option to continue in the long-term. […] Risperidone-treated subjects were titrated from 2 mg to 6 mg daily over a three-day period and were subsequently maintained at 6 mg/day for the remainder of the treatment period. […] Blood samples were also obtained at Screening/Baseline, Week 3, and Week 6 for clinical laboratory assessments. […]

[2] = tested on: adult subjects with schizophrenia; experiment: PANSS negative symptom subscale score, Clinical Study Three; conditions: for Change from Baseline in PANSS Negative Symptom Subscale Score, Mean (SD) / Change from Baseline in PANSS Negative Symptom Subscale Score, Median / Trt Effect (bifeprunox - placebo), PANSS Negative Symptom Subscale Score / mean change (SD) from Baseline to Endpoint in PANSS Negative Symptom subscale score: LOCF; for Change from Baseline in PANSS Negative Symptom Subscale Score, Mean (SD) / Change from Baseline in PANSS Negative Symptom Subscale Score, Median / Trt Effect (bifeprunox - placebo), PANSS Negative Symptom Subscale Score: ITT population; for Trt Effect (bifeprunox - placebo), PANSS Negative Symptom Subscale Score: ANCOVA; for PANSS Negative Symptom subscale score, treatment effect (bifeprunox—placebo): Endpoint LOCF; for mean change (SD) from Baseline to Endpoint in PANSS Negative Symptom subscale score: ITT
From the text: (§1) SECONDARY OBJECTIVES To assess the efficacy of bifeprunox in treating schizophrenia using the Positive Symptom sub-scale score of the PANSS, the Negative Symptom sub-scale score of the PANSS, the General Psychopathology sub-scale of the PANSS, Brief Psychiatric Rating Scale (BPRS) total score derived from the PANSS, BPRS psychosis score derived from the PANSS, the Clinical Global Impression Severity of Illness score (CGI-S), the Clinical Global Impression Improvement score (CGI-I), CGI-I responder rate, PANSS responder rate based on the PANSS total score, Calgary Depression Scale for Schizophrenia (CDSS), and Subject Satisfaction rating.
(§2) There were four treatment arms in this study, approximately 144 subjects per arm. […] After completing the Single-Blind Placebo Lead-in Period of at least three days, bifeprunox-treated subjects were titrated from 0.25 mg up to 20 mg/day or 30 mg/day according to a standardized titration scheme over a seven- or eight-day period, respectively. When the assigned dose was reached, subjects were maintained at that dose for the remainder of the six week treatment period. […] Subjects were hospitalized (if not already inpatients) after eligibility for study entry was verified, starting from the Screening Visit until at least 10 days after Baseline. Subjects could be hospitalized longer than 10 days if considered medically necessary by the Investigator. Rating scale assessments for efficacy and abnormal movement disorders were done weekly except for Week 5. […] Subject satisfaction with study medication was assessed at Week 6.

[3] = tested on: adult subjects with schizophrenia; experiment: PANSS general psychopathology subscale score, Clinical Study Three; conditions: for Change from Baseline in PASS General Psychopathology Subscale Score, Mean (SD) / Change from Baseline in PASS General Psychopathology Subscale Score, Median / Trt Effect (bifeprunox - placebo), PASS General Psychopathology Subscale Score / mean change (SD) from Baseline to Endpoint in PANSS general psychopathology subscale score: LOCF; for Change from Baseline in PASS General Psychopathology Subscale Score, Mean (SD) / Change from Baseline in PASS General Psychopathology Subscale Score, Median / Trt Effect (bifeprunox - placebo), PASS General Psychopathology Subscale Score: ITT population; for Trt Effect (bifeprunox - placebo), PASS General Psychopathology Subscale Score: ANCOVA; for PANSS general psychopathology subscale score, treatment effect (bifeprunox—placebo): Endpoint LOCF; for mean change (SD) from Baseline to Endpoint in PANSS general psychopathology subscale score: ITT
From the text: as §1, §2

[4] = bifeprunox 40 mg, Endpoint LOCF
[5] = Bifeprunox 20 mg, Week 6/Endpoint
[6] = Bifeprunox 30 mg, Week 6/Endpoint

## O=c1[nH]c2cccc(N3CCN(Cc4cccc(-c5ccccc5)c4)CC3)c2o1 [Bifeprunox, 7-[4-([1,1′-biphenyl]-3-ylmethyl)-1-piperazinyl]-2(3H)-benzoxazolone]
[1]; bifeprunox 30 mg, LOCF, ITT
  PANSS Responder at Week 6/Endpoint, 20% Definition, Yes: 51 (36%) n (%)
[1]; [4]
  PANSS 20% responder rate: 30%
  PANSS 30% responder rate: 22%
[1]; bifeprunox 40 mg, LOCF, ITT
  PANSS Responder at Endpoint, 30% Definition Responder, No: 110 (78%) n (%)
  PANSS Responder at Endpoint, 30% Definition Responder, Yes: 31 (22%) n (%)
  PANSS Responder at Week 6/Endpoint, 20% Definition, No: 99 (70%) n (%)
  PANSS Responder at Week 6/Endpoint, 20% Definition, Yes: 42 (30%) n (%)
[2]; Bifeprunox 20 mg, Week 1
  Change from Baseline in PANSS Negative Symptom Subscale Score, Mean (SD): −1.5 (3.0)
  Change from Baseline in PANSS Negative Symptom Subscale Score, Median: −1
[2]; Bifeprunox 20 mg, Week 2
  Change from Baseline in PANSS Negative Symptom Subscale Score, Mean (SD): −2.7 (3.6)
  Change from Baseline in PANSS Negative Symptom Subscale Score, Median: −3
[2]; Bifeprunox 20 mg, Week 3
  Change from Baseline in PANSS Negative Symptom Subscale Score, Mean (SD): −3.2 (4.4)
  Change from Baseline in PANSS Negative Symptom Subscale Score, Median: −3
[2]; Bifeprunox 20 mg, Week 4
  Change from Baseline in PANSS Negative Symptom Subscale Score, Mean (SD): −3.3 (4.8)
  Change from Baseline in PANSS Negative Symptom Subscale Score, Median: −3
[2]; [5]
  Change from Baseline in PANSS Negative Symptom Subscale Score, Mean (SD): −3.3 (5.0)
  Change from Baseline in PANSS Negative Symptom Subscale Score, Median: −3
  Trt Effect (bifeprunox - placebo), PANSS Negative Symptom Subscale Score: −0.9
[2]; Bifeprunox 30 mg, Week 1
  Change from Baseline in PANSS Negative Symptom Subscale Score, Mean (SD): −1.3 (4.0)
  Change from Baseline in PANSS Negative Symptom Subscale Score, Median: −1
[2]; Bifeprunox 30 mg, Week 2
  Change from Baseline in PANSS Negative Symptom Subscale Score, Mean (SD): −1.9 (4.3)
  Change from Baseline in PANSS Negative Symptom Subscale Score, Median: −1
[2]; Bifeprunox 30 mg, Week 3
  Change from Baseline in PANSS Negative Symptom Subscale Score, Mean (SD): −2.5 (4.8)
  Change from Baseline in PANSS Negative Symptom Subscale Score, Median: −2
[2]; Bifeprunox 30 mg, Week 4
  Change from Baseline in PANSS Negative Symptom Subscale Score, Mean (SD): −2.6 (5.0)
  Change from Baseline in PANSS Negative Symptom Subscale Score, Median: −2
[2]; [6]
  Change from Baseline in PANSS Negative Symptom Subscale Score, Mean (SD): −3.1 (5.2)
  Change from Baseline in PANSS Negative Symptom Subscale Score, Median: −2
  Trt Effect (bifeprunox - placebo), PANSS Negative Symptom Subscale Score: −0.6
[2]; bifeprunox 20 mg
  PANSS Negative Symptom subscale score, treatment effect (bifeprunox—placebo): −0.9
  mean change (SD) from Baseline to Endpoint in PANSS Negative Symptom subscale score: −3.3 (5.0)
[2]; bifeprunox 30 mg
  PANSS Negative Symptom subscale score, treatment effect (bifeprunox—placebo): −0.6
  mean change (SD) from Baseline to Endpoint in PANSS Negative Symptom subscale score: −3.1 (5.2)
[3]; Bifeprunox 20 mg, Week 1
  Change from Baseline in PASS General Psychopathology Subscale Score, Mean (SD): −2.4 (6.7)
  Change from Baseline in PASS General Psychopathology Subscale Score, Median: −2
[3]; Bifeprunox 20 mg, Week 2
  Change from Baseline in PASS General Psychopathology Subscale Score, Mean (SD): −4.6 (8.4)
  Change from Baseline in PASS General Psychopathology Subscale Score, Median: −5
[3]; Bifeprunox 20 mg, Week 3
  Change from Baseline in PASS General Psychopathology Subscale Score, Mean (SD): −5.6 (9.3)
  Change from Baseline in PASS General Psychopathology Subscale Score, Median: −6
[3]; Bifeprunox 20 mg, Week 4
  Change from Baseline in PASS General Psychopathology Subscale Score, Mean (SD): −5.8 (10.1)
  Change from Baseline in PASS General Psychopathology Subscale Score, Median: −7
[3]; [5]
  Change from Baseline in PASS General Psychopathology Subscale Score, Mean (SD): −6.1 (10.7)
  Change from Baseline in PASS General Psychopathology Subscale Score, Median: −7
  Trt Effect (bifeprunox - placebo), PASS General Psychopathology Subscale Score: −1.5
[3]; Bifeprunox 30 mg, Week 1
  Change from Baseline in PASS General Psychopathology Subscale Score, Mean (SD): −2.8 (6.3)
  Change from Baseline in PASS General Psychopathology Subscale Score, Median: −3
[3]; Bifeprunox 30 mg, Week 2
  Change from Baseline in PASS General Psychopathology Subscale Score, Mean (SD): −3.8 (8.2)
  Change from Baseline in PASS General Psychopathology Subscale Score, Median: −4
[3]; Bifeprunox 30 mg, Week 3
  Change from Baseline in PASS General Psychopathology Subscale Score, Mean (SD): −5.0 (9.3)
  Change from Baseline in PASS General Psychopathology Subscale Score, Median: −4
[3]; Bifeprunox 30 mg, Week 4
  Change from Baseline in PASS General Psychopathology Subscale Score, Median: −5
[3]; [6]
  Change from Baseline in PASS General Psychopathology Subscale Score, Mean (SD): −5.8 (10.3)
  Change from Baseline in PASS General Psychopathology Subscale Score, Median: −6
  Trt Effect (bifeprunox - placebo), PASS General Psychopathology Subscale Score: −0.9
[3]; bifeprunox 20 mg
  PANSS general psychopathology subscale score, treatment effect (bifeprunox—placebo): −1.5
  mean change (SD) from Baseline to Endpoint in PANSS general psychopathology subscale score: −6.1 (10.7)
[3]; bifeprunox 30 mg
  PANSS general psychopathology subscale score, treatment effect (bifeprunox—placebo): −0.9
  mean change (SD) from Baseline to Endpoint in PANSS general psychopathology subscale score: −5.8 (10.3)
